Test results published in patent US12227743B2, “Pharmaceutical composition for treatment of diseases associated with upregulated periostin expression or periostin splice variant switching” (Osaka University, priority 2018, dated 2025).

Experiments:
[1] = test system: downstream molecules of TGF-β-induced signaling; assay: Quantitative PCR of downstream molecules of TGF-β-induced signaling in hRPTEC transfected with antisense oligonucleotide; format: cell-based, human; settings: vs TGF-β (+) Control AS, FIG. 15
Experimental: Human renal proximal tubular epithelial cells (hRPTEC, ATCC No. PCS-400-010) were cultured in a renal epithelial cell basal medium (REBM, Cambrex Bio Science Inc.) with 10% fetal bovine serum (FBS) and 1% penicillin/streptomycin. The cells were transfected with the human exon 17-skipping antisense oligonucleotide (Pn exon 17 AS) or the control antisense oligonucleotide (Control AS) as described in Example 1. At 24 hours after transfection, the medium was replaced by a serum-free medium. At 24 hours thereafter, human TGF-β1 (PeproTech) was added to the medium, and culture was continued for additional 24 hours. After cell culture, total RNA was extracted from the cells and subjected to cDNA synthesis (see Reference Example 1). The resulting cDNA was subjected to quantitative PCR using the primers shown below to measure the expression level of the splice variant Pn1 (containing exons 17 and 21, see FIG. 1) (n=3 per group) and the mRNA expression levels of the downstream molecules of TGF-β-induced signaling (αSMA, Snail 1, TNFα, CTGF, vimentin) (n=4 per group). Statistical analysis was performed by analysis of variance and Tukey-Kramer adjustment using the JMP statistical software package.

[2] = test system: human breast cancer cell line BT549; assay: MTS assay (number of viable cells) in transfected BT549 cells with or without paclitaxel; format: cell-based; settings: 72 hours
Experimental: (§1) Periostin-highly-expressing human breast cancer cell line BT549 was cultured in RPMI 1640 with 10% FBS and 1% penicillin/streptomycin. The BT549 cells are a triple-negative breast cancer cell line, which is negative for estrogen receptor, progesterone receptor, and human epidermal growth factor receptor 2 (HER2).
(§2) The BT549 cells were transfected with the human exon 17-skipping antisense oligonucleotide or the human exon 21-skipping antisense oligonucleotide as described in Example 1. The cells were subsequently seeded in an amount of 5×10^3 cells/well on a 96-well plate. Similarly, the BT549 cells were transfected with the control antisense oligonucleotide and seeded on a 96-well plate as the control group. On the day after seeding, paclitaxel was added at a final concentration of 10 nM to the wells. After 72 hours of culture, cell proliferation (number of viable cells) and ATP-producing capacity (ATP quantification) were evaluated. The number of viable cells was measured using the CellTiter 96 AQueous One Solution Cell Proliferation Assay (trade name, Promega, #G3582) (MTS assay). The amount of ATP was measured using the CellTiter-Glo Luminescent Cell Viability Assay (trade name, Promega, #G7570) (ATP assay). The Tukey-Kramer test was used for intergroup comparison.

[3] = test system: human breast cancer cell line BT549; assay: ATP assay (CellTiter-Glo, ATP production) in transfected BT549 cells with or without paclitaxel; format: cell-based; settings: 72 hours
Experimental: as §1, §2

[4] = test system: Luciferase-expressing mouse breast cancer (4T1-Luc) cells; assay: Pulmonary metastasis (lung luciferase activity) in nude mice after tail vein injection of transfected 4T1-Luc cells; format: in vivo; settings: 5×10^5 transfected 4T1-Luc cells via tail vein, 5 days after injection, vs control antisense, FIG. 16
Experimental: Luciferase-expressing mouse breast cancer (4T1-Luc) cells were cultured in DMEM with 10% FBS and 1% penicillin/streptomycin. A morpholino antisense oligonucleotide designed to induce skipping of exon 17 of a mouse periostin gene was purchased from Funakoshi Co., Ltd. The nucleotide sequence of the antisense oligonucleotide is as follows.
The mouse exon 17-skipping antisense oligonucleotide targets the region of positions 21118 to 21142 of the mouse periostin gene represented by SEQ ID NO: 2.
The 4T1-Luc cells were transfected with the mouse exon 17-skipping antisense oligonucleotide or the control antisense oligonucleotide (SEQ ID NO: 6) as described in Example 1. After 2 days of culture, the cells were detached, and cell suspension was prepared. The cell suspension (containing 5×10^5 4T1-Luc cells per mouse) was injected via the tail vein to nude mice (BALB/c-nu, female, 8 to 10 weeks old) (n=3 per group). At 5 days after injection, the lung was excised from each mouse under anesthesia and homogenized. The homogenate was subjected to the measurement of luciferase activity using the Dual-Luciferase Reporter Assay System (Promega, #E1910). The Mann Whitney test (MWU) was used for comparison between the two groups.

[5] = BT549, paclitaxel 10 nM, vs control antisense transfected cells, FIG. 17B
[6] = BT549, no paclitaxel, vs control antisense transfected cells, FIG. 18A
[7] = BT549, paclitaxel 10 nM, vs control antisense transfected cells, FIG. 18B

Substance	CTGF mRNA expression, TGF-β induction [1]	Snail 1 mRNA expression, TGF-β induction [1]	TNFα mRNA expression, TGF-β induction [1]	Vimentin mRNA expression, TGF-β induction [1]	αSMA mRNA expression, TGF-β induction [1]	cell proliferation (number of viable cells, MTS) [2, 5]	ATP production [3, 6]	ATP production [3, 7]	cell proliferation (number of viable cells, MTS) ([2]; BT549, no paclitaxel, vs exon 17-skipping and control antisense transfected cells, FIG. 17A)	ATP production ([3]; BT549, no paclitaxel, vs exon 17-skipping antisense transfected cells, FIG. 18A)	ATP production ([3]; BT549, paclitaxel 10 nM, vs exon 17-skipping antisense transfected cells, FIG. 18B)	luciferase activity in lung homogenate (pulmonary metastasis) [4]
exon 17-skipping antisense oligonucleotide: Morpholino antisense oligonucleotide 5′-CCATGTATAACATTGATTTTTACCTTCAGT-3′ designed to induce skipping of exon 17 of a human periostin gene (all phosphorodiamidate morpholino (PMO))	significantly suppressed	significantly suppressed	significantly suppressed	significantly suppressed	significantly suppressed	significant reduction	significant reduction	significant reduction				
exon 21-skipping antisense oligonucleotide: Morpholino antisense oligonucleotide 5′-TTGTTGTCCTTTTACTAACCTCCCT-3′ designed to induce skipping of exon 21 of a human periostin gene (all phosphorodiamidate morpholino (PMO))						significant reduction	significant reduction	significant reduction	significant reduction	significant reduction	significant reduction	
mouse exon 17-skipping antisense oligonucleotide: Morpholino antisense oligonucleotide 5′-TGCTGAAAACATAGAAAGTGGAGCA-3′ designed to induce skipping of exon 17 of a mouse periostin gene (all phosphorodiamidate morpholino (PMO))												very low
